{"source": "patent US20060258639A1", "about": "“Therapeutic combinations for the treatment or prevention of psychotic disorders” (Wyeth, priority 2005, published 2006)", "format_in_all_cases": "in vivo", "key": {"[1]": {"tested_on": "apomorphine-induced climbing", "assay": "apomorphine-induced climbing in mice, Compound 1 alone or with haloperidol (Experiment 1)", "settings": "for ED50: Mus musculus, sc, apomorphine 1 mg/kg s.c., read-out: ED50 for apomorphine block", "procedure": "(§1) Using (7-(2,6-dichlorophenyl)-5-fluoro-2,3-dihydrobenzofuran-2-yl)methanamine (Compound 1) as an example, the present Example describes two experiments in which a compound of formula I, was administered in combination with either a typical (exemplified by haloperidol) or atypical (exemplified by clozapine). The combination reduced apomorphine-induced climbing without side effects.\n(§2) Mice were acclimated to the climbing cages for at least 1 hour and then dosed with either the vehicle or a dose of haloperidol or clozapine followed by a dose of either vehicle or a dose of Compound 1. Thirty minutes after dosing all mice received 1 mg/kg s.c. apomorphine and returned to the climbing cages. Five minutes after apomorphine the mice were observed and scored for climbing and stereotypy every 5 minutes for the 30 minute test session."}, "[2]": {"tested_on": "catalepsy induced by haloperidol", "assay": "catalepsy (bar test), extra-pyramidal side effect liability, Compound 1 with haloperidol", "settings": "Compound 1 3 mg/kg with haloperidol 0.1 & 0.17 mg/kg; 30, 60, 90 and 120 minutes after dosing; mice", "procedure": "Using (7-(2,6-dichlorophenyl)-5-fluoro-2,3-dihydrobenzofuran-2-yl)methanamine (Compound 1) as an example, the present Example describes an experiment in which a compound of formula I was administered in combination with haloperidol to assess extra-pyramidal side effect liability, as represented by cataleptic behavior. [table] Mice were dosed with either the vehicle or a dose of haloperidol followed by a dose of either vehicle or a dose of Compound 1. Thirty, 60, 90 and 120 minutes after dosing, the forelegs are draped over a thin horizontal rod 1.75″ high. The number of seconds up to 60 sec for which the mouse remains on the bar is recorded at each test point and presented as the percent of maximum possible response (60 sec)."}, "[3]": {"tested_on": "apomorphine-induced climbing", "assay": "apomorphine-induced climbing in mice, Compound 1 alone or with clozapine (Experiment 2)", "settings": "for ED50: Mus musculus, sc, apomorphine 1 mg/kg s.c., read-out: ED50 for apomorphine block", "procedure": "as §1, §2"}, "[4]": {"settings": "Compound 1 0.3, 1 & 3 mg/kg co-administered with clozapine 3 & 5.4 mg/kg"}}}
{"smiles": "NCC1Cc2cc(F)cc(-c3c(Cl)cccc3Cl)c2O1", "note": "(centres unmarked) [Compound 1, (7-(2,6-dichlorophenyl)-5-fluoro-2,3-dihydrobenzofuran-2-yl)methanamine]", "values": [{"measurement": "block of apomorphine induced climbing versus either compound alone", "setting": "[1]; Compound 1 0.3, 1 & 3 mg/kg co-administered with haloperidol 0.17 mg/kg", "value": "greater block of apomorphine induced climbing"}, {"measurement": "effect on stereotypy", "setting": "[1]; Compound 1 0.3, 1 & 3 mg/kg co-administered with haloperidol 0.17 mg/kg, relative to haloperidol alone", "value": "no effect on stereotypy"}, {"measurement": "ED50", "setting": "[1]; Experiment 1, Compound 1 alone", "value": 1.81, "unit": "mg/kg"}, {"measurement": "ED50", "setting": "[1]; Experiment 1, co-administered with 0.1 mg/kg of haloperidol", "value": 1.49, "unit": "mg/kg"}, {"measurement": "ED50", "setting": "[1]; Experiment 1, co-administered with 0.17 mg/kg of haloperidol", "value": 0.534, "unit": "mg/kg"}, {"measurement": "catalepsy, percent of maximum possible response (60 sec)", "setting": "[2]", "value": "up to 45 % of maximum catalepsy"}, {"measurement": "block of apomorphine induced climbing versus either compound alone", "setting": "[3]; [4]", "value": "greater block of apomorphine induced climbing"}, {"measurement": "effect on stereotypy", "setting": "[3]; [4]", "value": "no effect on stereotypy"}, {"measurement": "ED50", "setting": "[3]; Experiment 2, Compound 1 alone", "value": 7.15, "unit": "mg/kg"}, {"measurement": "ED50", "setting": "[3]; Experiment 2, co-administered with 3 mg/kg of clozapine", "value": 2.48, "unit": "mg/kg"}, {"measurement": "ED50", "setting": "[3]; Experiment 2, co-administered with 5.4 mg/kg of clozapine", "value": 1.67, "unit": "mg/kg"}]}
